Calls of active or inactive are those of the source. The rule behind the calls is not given here.
Legend:
[1] = target: T1, Histone deacetylase 1 (Homo sapiens, UniProt Q13547); assay: Inhibition of HDAC1 in human HCT-116 cells assessed as increase in DR5 protein expression at 0.5 uM incubated for 12 hrs by Western blot analysis; assay type: cell-based
[2] = Toxicity in BALB/c mouse xenografted with human HCT-116 cells assessed as morphological changes in kidney at 12.5 to 25 mg/kg, po qd administered for 21 days by H & E staining based microscopic analysis; assay type: organism-based; settings: in vivo, 504 h, dose 12.5-25 mg/kg, time 21 day
[3] = system: MV4-11; assay: Antiproliferative activity against human MV4-11 cells assessed as inhibition of cell growth incubated for 72 hrs by luminescence based analysis; assay type: functional; settings: MV4-11, 72 h
[4] = system: HCT-116; assay: Induction of apoptosis in human HCT-116 cells assessed as early apoptotic cells at 0.125 uM incubated for 24 hrs by AnnexinV-FITC/PI staining based flow cytometry (reference value: 0.93 %); assay type: functional
[5] = Toxicity in BALB/c mouse xenografted with human HCT-116 cells assessed as morphological changes in heart at 12.5 to 25 mg/kg, po qd administered for 21 days by H & E staining based microscopic analysis; assay type: organism-based; settings: in vivo, 504 h, dose 12.5-25 mg/kg, time 21 day
[6] = system: HCT-116; assay: Antiproliferative activity against human HCT-116 cells assessed as inhibition of cell growth incubated for 72 hrs by luminescence based analysis; assay type: functional; settings: HCT-116, 72 h
[7] = system: HCT-116; assay: Induction of apoptosis in human HCT-116 cells assessed as early apoptotic cells at 0.25 uM incubated for 24 hrs by AnnexinV-FITC/PI staining based flow cytometry (reference value: 0.93 %); assay type: functional
[8] = system: HepG2; assay: Antiproliferative activity against human HepG2 cells assessed as inhibition of cell growth incubated for 72 hrs by luminescence based analysis; assay type: functional; settings: HepG2, 72 h
[9] = system: HCT-116; assay: Effect on DR5 protein expression in human HCT-116 cells incubated for 12 hrs by Western blot analysis; assay type: functional, cell-based; settings: dose 0.125-0.5 µM, DDE = dose-dependent effect
[10] = target: Histone deacetylase 2 (Homo sapiens, UniProt Q92769); assay: Inhibition of human HDAC2 using RHKKAc fluorogenic peptide as substrate preincubated for 10 mins followed by substrate addition by fluorescence based analysis
[11] = system: HCT-116; assay: Upregulation of TRAIL mRNA expression in human HCT-116 cells at 0.25 uM incubated for 12 hrs by RT-PCR analysis; assay type: functional, cell-based
[12] = system: HCT-116; assay: Antitumor activity against human HCT-116 cells xenografted in BALB/c mouse assessed as reduction in tumor growth at 12.5 mg/kg, po qd administered for 3 weeks and measured every 3 days by vernier caliper analysis; assay type: functional, organism-based
[13] = target: T1, Histone deacetylase 1; assay: Inhibition of HDAC1 in human HCT-116 cells assessed as increase in TRAIL protein expression at 0.5 uM incubated for 12 hrs by Western blot analysis; assay type: cell-based
[14] = Toxicity in BALB/c mouse xenografted with human HCT-116 cells assessed as morphological changes in liver at 12.5 to 25 mg/kg, po qd administered for 21 days by H & E staining based microscopic analysis; assay type: organism-based; settings: in vivo, 504 h, dose 12.5-25 mg/kg, time 21 day
[15] = system: HCT-116; assay: Induction of apoptosis in human HCT-116 cells assessed as late apoptotic cells at 0.125 uM incubated for 24 hrs by AnnexinV-FITC/PI staining based flow cytometry (reference value: 0.82 %); assay type: functional
[16] = system: HCT-116; assay: Induction of apoptosis in human HCT-116 cells assessed as late apoptotic cells at 0.5 uM incubated for 24 hrs by AnnexinV-FITC/PI staining based flow cytometry (reference value: 0.82 %); assay type: functional
[17] = system: HCT-116; assay: Induction of apoptosis in human HCT-116 cells assessed as viable cells at 0.25 uM incubated for 24 hrs by AnnexinV-FITC/PI staining based flow cytometry (reference value: 93.64%); assay type: functional; settings: read-out: Activity
[18] = system: HCT-116; assay: Induction of apoptosis in human HCT-116 cells assessed as increase in caspase-8 protein expression incubated for 12 hrs by Western blot analysis; assay type: functional, cell-based; settings: dose 0.125-0.5 µM, DDE = dose-dependent effect
[19] = system: HCT-116; assay: Antitumor activity against human HCT-116 cells xenografted in BALB/c mouse assessed as reduction in tumor growth at 50 mg/kg, po qd administered for 3 weeks and measured every 3 days by vernier caliper analysis; assay type: functional, organism-based
[20] = target: T1, Histone deacetylase 1; assay: Inhibition of HDAC1 in human HCT-116 cells assessed as increase in Ac-H4 acetylation at 0.5 uM incubated for 12 hrs by Western blot analysis; assay type: cell-based
[21] = target: T2, Histone deacetylase 8 (Homo sapiens, UniProt Q9BY41); assay: Inhibition of human HDAC8 using RHKAcKAc as fluorogenic substrate preincubated for 10 mins followed by substrate addition by fluorescence based analysis
T2 sequence (Q9BY41 whole entry): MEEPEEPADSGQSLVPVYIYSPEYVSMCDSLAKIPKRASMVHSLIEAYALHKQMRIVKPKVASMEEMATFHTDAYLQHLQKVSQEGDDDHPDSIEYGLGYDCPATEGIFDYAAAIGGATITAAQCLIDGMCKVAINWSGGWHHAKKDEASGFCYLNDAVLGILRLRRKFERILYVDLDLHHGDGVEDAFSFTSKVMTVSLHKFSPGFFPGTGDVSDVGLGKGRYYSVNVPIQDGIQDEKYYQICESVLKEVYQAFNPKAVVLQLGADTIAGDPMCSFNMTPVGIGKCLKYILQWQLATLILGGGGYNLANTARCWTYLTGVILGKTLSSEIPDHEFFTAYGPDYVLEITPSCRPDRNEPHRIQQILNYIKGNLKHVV

[22] = system: HCT-116; assay: Induction of cell cycle arrest in human HCT-116 cells assessed as accumulation of cells at S phase incubated for 12 hrs by propidium iodide staining based flow cytometric analysis; assay type: functional; settings: dose 0.125-0.5 µM, DDE = dose-dependent effect
[23] = Toxicity in BALB/c mouse xenografted with human HCT-116 cells assessed as morphological changes in lung at 12.5 to 25 mg/kg, po qd administered for 21 days by H & E staining based microscopic analysis; assay type: organism-based; settings: in vivo, 504 h, dose 12.5-25 mg/kg, time 21 day
[24] = system: HCT-116; assay: Induction of apoptosis in human HCT-116 cells assessed as early apoptotic cells at 0.5 uM incubated for 24 hrs by AnnexinV-FITC/PI staining based flow cytometry (reference value: 0.93 %); assay type: functional
[25] = Toxicity in BALB/c mouse xenografted with human HCT-116 cells assessed as reduction in body weight at 12.5 to 25 mg/kg, po qd administered for 3 weeks; assay type: organism-based; settings: in vivo, 504 h, dose 12.5-25 mg/kg
[26] = system: HCT-116; assay: Effect on ac-H4 protein expression in human HCT-116 cells incubated for 12 hrs by Western blot analysis; assay type: functional, cell-based; settings: dose 0.125-0.5 µM, DDE = dose-dependent effect
[27] = system: HCT-116; assay: Induction of apoptosis in human HCT-116 cells assessed as decrease in Bcl2 protein expression incubated for 12 hrs by Western blot analysis; assay type: functional, cell-based; settings: dose 0.125-0.5 µM, DDE = dose-dependent effect
[28] = target: Histone deacetylase 4 (Homo sapiens, UniProt P56524); assay: Inhibition of human HDAC4 using Boc-Lys(trifluoroacetyl)-AMC as fluorogenic substrate preincubated for 10 mins followed by substrate addition by fluorescence based analysis
[29] = system: HCT-116; assay: Induction of apoptosis in human HCT-116 cells assessed as dead cells at 0.5 uM incubated for 24 hrs by AnnexinV-FITC/PI staining based flow cytometry (reference value: 4.62 %); assay type: functional
[30] = system: HCT-116; assay: Effect on HDAC1 protein expression in human HCT-116 cells incubated for 12 hrs by Western blot analysis; assay type: functional, cell-based; settings: dose 0.125-0.5 µM, DDE = dose-dependent effect

T1 sequence (Q13547 whole entry): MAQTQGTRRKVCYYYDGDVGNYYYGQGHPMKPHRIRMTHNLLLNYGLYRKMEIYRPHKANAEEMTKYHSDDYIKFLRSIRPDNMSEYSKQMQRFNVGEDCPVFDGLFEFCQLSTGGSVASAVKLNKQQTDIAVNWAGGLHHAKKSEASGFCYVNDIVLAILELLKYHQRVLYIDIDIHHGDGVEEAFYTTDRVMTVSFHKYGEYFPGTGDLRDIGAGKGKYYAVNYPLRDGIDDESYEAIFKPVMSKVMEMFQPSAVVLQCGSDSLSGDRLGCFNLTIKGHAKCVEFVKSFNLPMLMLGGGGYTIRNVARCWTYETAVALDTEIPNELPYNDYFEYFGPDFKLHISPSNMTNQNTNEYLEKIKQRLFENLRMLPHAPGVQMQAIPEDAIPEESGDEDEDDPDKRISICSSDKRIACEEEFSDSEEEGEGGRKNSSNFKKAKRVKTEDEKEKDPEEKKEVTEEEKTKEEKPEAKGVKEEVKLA
Sequence of Histone deacetylase 2 (Q92769 whole entry): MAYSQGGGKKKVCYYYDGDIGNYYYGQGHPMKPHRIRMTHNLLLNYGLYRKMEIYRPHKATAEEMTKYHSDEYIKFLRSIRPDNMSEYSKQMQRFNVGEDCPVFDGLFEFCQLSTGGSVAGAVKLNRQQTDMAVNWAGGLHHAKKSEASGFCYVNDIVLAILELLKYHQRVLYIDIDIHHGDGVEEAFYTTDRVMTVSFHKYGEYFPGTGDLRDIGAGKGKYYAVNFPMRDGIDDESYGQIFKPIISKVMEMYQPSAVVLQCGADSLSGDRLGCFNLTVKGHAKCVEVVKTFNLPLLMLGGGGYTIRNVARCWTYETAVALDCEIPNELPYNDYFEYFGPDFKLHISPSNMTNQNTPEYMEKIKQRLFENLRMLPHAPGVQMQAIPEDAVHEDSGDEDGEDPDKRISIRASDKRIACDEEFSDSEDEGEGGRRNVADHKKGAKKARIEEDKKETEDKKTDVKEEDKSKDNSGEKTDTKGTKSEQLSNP
Sequence of Histone deacetylase 4 (P56524 whole entry): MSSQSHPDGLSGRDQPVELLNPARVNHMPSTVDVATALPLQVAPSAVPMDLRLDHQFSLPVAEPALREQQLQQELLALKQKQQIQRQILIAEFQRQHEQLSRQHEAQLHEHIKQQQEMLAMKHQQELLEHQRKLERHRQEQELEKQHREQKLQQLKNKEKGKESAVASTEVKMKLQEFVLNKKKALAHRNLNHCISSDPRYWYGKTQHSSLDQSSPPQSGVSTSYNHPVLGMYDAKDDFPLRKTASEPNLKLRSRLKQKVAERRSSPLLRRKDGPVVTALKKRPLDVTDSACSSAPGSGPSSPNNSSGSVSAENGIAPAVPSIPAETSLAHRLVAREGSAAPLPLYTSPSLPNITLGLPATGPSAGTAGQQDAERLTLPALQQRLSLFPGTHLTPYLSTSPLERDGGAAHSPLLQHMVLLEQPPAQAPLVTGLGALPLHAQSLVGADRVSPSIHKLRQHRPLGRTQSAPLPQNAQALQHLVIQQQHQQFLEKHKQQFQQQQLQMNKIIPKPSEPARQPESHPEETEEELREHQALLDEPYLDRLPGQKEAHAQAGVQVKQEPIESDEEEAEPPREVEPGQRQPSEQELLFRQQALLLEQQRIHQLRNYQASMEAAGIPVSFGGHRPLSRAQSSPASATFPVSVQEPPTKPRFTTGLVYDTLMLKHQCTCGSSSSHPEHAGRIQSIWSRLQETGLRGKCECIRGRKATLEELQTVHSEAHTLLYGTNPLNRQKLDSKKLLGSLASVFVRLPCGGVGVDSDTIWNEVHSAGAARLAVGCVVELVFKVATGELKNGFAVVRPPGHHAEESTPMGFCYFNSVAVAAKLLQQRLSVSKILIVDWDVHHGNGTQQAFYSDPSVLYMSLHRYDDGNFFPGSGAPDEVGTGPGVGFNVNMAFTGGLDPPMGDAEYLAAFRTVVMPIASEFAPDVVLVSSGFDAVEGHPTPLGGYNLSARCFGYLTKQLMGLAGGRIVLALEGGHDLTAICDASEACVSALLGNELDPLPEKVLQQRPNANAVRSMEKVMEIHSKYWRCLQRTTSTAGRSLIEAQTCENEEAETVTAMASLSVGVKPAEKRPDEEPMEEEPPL

## COc1ccccc1CN1C(=O)C2=C(CCN(Cc3ccc(C(=O)Nc4ccccc4N)cc3)C2)N2CCN=C12
[1]
  inhibition: Active
[2]
  Activity: Non-Toxic
[3]
  IC50: 563 nM
[4]
  Activity: 0.87%
[5]
  Activity: Non-Toxic
[6]
  IC50: 653 nM
[7]
  Activity: 1.18%
[8]
  IC50: 2670 nM
[9]
  Activity: Dde
[10]
  IC50: 346 nM
[11]
  Activity: Active
[12]
  Activity: Active
[13]
  inhibition: Active
[14]
  Activity: Non-Toxic
[15]
  Activity: 1.35%
[16]
  Activity: 2%
[17]
  viability at 0.25 µM: 93%
[18]
  Activity: Dde
[19]
  Activity: Active
[20]
  inhibition: Active
[21]
  IC50: > 10000 nM
[22]
  Activity: Dde
[23]
  Activity: Non-Toxic
[24]
  Activity: 1.22%
[25]
  Activity: Non-Toxic
[26]
  Activity: Dde
[27]
  Activity: Dde
[28]
  IC50: > 10000 nM
[29]
  Activity: 9.59%
[30]
  Activity: Dde
